Measured values: patent US3960877A, “N-monosubstituted-2,3-pyridinedicarboxamides, and related compounds” (priority 1974, dated 1976)

What was measured:
Format in all cases: in vivo
[1] = tested on: undesirable plants of both the monocotyledonous and the dicotyledonous species; test: Herbicidal activity, general; settings: for effective application rate: relative to 3-isopropyl-pyrido[3,2-d]pyrimidine-2,4(1H,3H)-dione, preemergence or postemergence; for order of herbicidal activity: in vivo
Description: All of the 3-substituted compounds of the pyrido [3,2-d]pyrimidine-2,4(1H,3H)-dione and lumazine families made from intermediate amides produced by the method of this invention have an unexpectedly high order of herbicidal activity.
(§1) In using the compound, seeds of the types of plants set forth in Table II were sown in fresh soil. In the preemergence test the soil was sprayed with a solution of the test compound immediately after the seeds were planted, and before any noticeable growth developed. The solution was about a 2 percent by weight solution of the compound in acetone and/or alcohol. The compound was applied at the rate of 16 pounds per acre of soil surface.
(§2) Approximately 3 weeks after spray application, the herbicidal activity of the compound was determined by visual observation of the treated area in comparison with untreated control areas. These observations are reported below in Table II wherein the average activity rating is reported as the percent control of plant growth.
In the postemergence test the soil and developing plants were sprayed approximately 2 weeks after the seeds were sown. The compound was applied at the rate of 8 pounds per acre from about a 2 percent by weight solution of the test compound in acetone and/or alcohol. The postemergence herbicidal activity was measured in the same way as the preemergence activity; i.e. visual observation approximately 11 days after spraying, and expressed as the percent control of plant growth.

Johnsongrass [2] = test: Preemergence herbicidal activity, % control of plant growth; settings: for pest or weed control at 17933.6 g/ha: Sorghum halepense, pre-emergence, 504 h, 16 lb/acre, about 3 weeks
In short: (§3)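 Percent control of growth scored by eye about 3 weeks post-spray relative to untreated controls. Application was preemergence, immediately after planting seeds in fresh soil, at 16 lb/acre using an approximately 2 wt% acetone and/or alcohol solution.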

Corn [3] = test: as above; settings: for plant injury at 17933.6 g/ha: Zea mays, pre-emergence, 504 h, 16 lb/acre, about 3 weeks
In short: as §3

Curled Dock [4] = test: as above; settings: for pest or weed control at 17933.6 g/ha: pre-emergence, 504 h, 16 lb/acre, about 3 weeks
In short: as §3

Cucumber [5] = test: as above; settings: for pest or weed control at 17933.6 g/ha: Cucumis sativus, pre-emergence, 504 h, 16 lb/acre, about 3 weeks
In short: as §3

Lambsquarters [6] = test: as above; settings: for pest or weed control at 17933.6 g/ha: Chenopodium album, pre-emergence, 504 h, 16 lb/acre, about 3 weeks
In short: as §3

Chickweed [7] = test: as above; settings: pre-emergence, 504 h, 16 lb/acre, about 3 weeks
In short: as §3

Velvetleaf [8] = test: as above; settings: Abutilon theophrasti, pre-emergence, 504 h, 16 lb/acre, about 3 weeks
In short: as §3

Pigweed [9] = test: as above; settings: for pest or weed control at 17933.6 g/ha: Amaranthus retroflexus, pre-emergence, 504 h, 16 lb/acre, about 3 weeks
In short: as §3

Nutgrass [10] = test: as above; settings: pre-emergence, 504 h, 16 lb/acre, about 3 weeks
In short: as §3

Cheatgrass [11] = test: as above; settings: for pest or weed control at 17933.6 g/ha: Bromus tectorum, pre-emergence, 504 h, 16 lb/acre, about 3 weeks
In short: as §3

Wild Oats [12] = test: as above; settings: for pest or weed control at 17933.6 g/ha: Avena fatua, pre-emergence, 504 h, 16 lb/acre, about 3 weeks
In short: as §3

Crabgrass [13] = test: as above; settings: for pest or weed control at 17933.6 g/ha: Digitaria sanguinalis, pre-emergence, 504 h, 16 lb/acre, about 3 weeks
In short: as §3

Yellow Rocket [14] = test: as above; settings: pre-emergence, 504 h, 16 lb/acre, about 3 weeks
In short: as §3

Snapbeans [15] = test: as above; settings: pre-emergence, 504 h, 16 lb/acre, about 3 weeks
In short: as §3

Foxtail [16] = test: as above; settings: for pest or weed control at 17933.6 g/ha: Setaria, pre-emergence, 504 h, 16 lb/acre, about 3 weeks
In short: as §3

Alfalfa [17] = test: as above; settings: for pest or weed control at 17933.6 g/ha: Medicago sativa, pre-emergence, 504 h, 16 lb/acre, about 3 weeks
In short: as §3

Barnyard Grass [18] = test: as above; settings: for pest or weed control at 17933.6 g/ha: Echinochloa crus-galli, pre-emergence, 504 h, barnyard grass, 16 lb/acre, about 3 weeks
In short: as §3

Johnsongrass [19] = test: Postemergence herbicidal activity, % control of plant growth; settings: Sorghum halepense, post-emergence, 264 h, 8 lb/acre, about 11 days
In short: (§4)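 Percent control of plant growth was scored by eye roughly 11 days post-treatment. Treatment: a ~2% by weight acetone and/or alcohol solution sprayed over soil and seedlings at 8 pounds per acre, about two weeks after seeding.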

Corn [20] = test: as above; settings: Zea mays, post-emergence, 264 h, 8 lb/acre, about 11 days
In short: as §4

Curled Dock [21] = test: as above; settings: post-emergence, 264 h, 8 lb/acre, about 11 days
In short: as §4

Cucumber [22] = test: as above; settings: Cucumis sativus, post-emergence, 264 h, 8 lb/acre, about 11 days
In short: as §4

Lambsquarters [23] = test: as above; settings: Chenopodium album, post-emergence, 264 h, 8 lb/acre, about 11 days
In short: as §4

Chickweed [24] = test: as above; settings: post-emergence, 264 h, 8 lb/acre, about 11 days
In short: as §4

Velvetleaf [25] = test: as above; settings: Abutilon theophrasti, post-emergence, 264 h, 8 lb/acre, about 11 days
In short: as §4

Pigweed [26] = test: as above; settings: Amaranthus retroflexus, post-emergence, 264 h, 8 lb/acre, about 11 days
In short: as §4

Nutgrass [27] = test: as above; settings: post-emergence, 264 h, 8 lb/acre, about 11 days
In short: as §4

Cheatgrass [28] = test: as above; settings: Bromus tectorum, post-emergence, 264 h, 8 lb/acre, about 11 days
In short: as §4

Wild Oats [29] = test: as above; settings: Avena fatua, post-emergence, 264 h, 8 lb/acre, about 11 days
In short: as §4

Crabgrass [30] = test: as above; settings: Digitaria sanguinalis, post-emergence, 264 h, 8 lb/acre, about 11 days
In short: as §4

Yellow Rocket [31] = test: as above; settings: post-emergence, 264 h, 8 lb/acre, about 11 days
In short: as §4

Snapbeans [32] = test: as above; settings: post-emergence, 264 h, 8 lb/acre, about 11 days
In short: as §4

Foxtail [33] = test: as above; settings: Setaria, post-emergence, 264 h, 8 lb/acre, about 11 days
In short: as §4

Alfalfa [34] = test: as above; settings: Medicago sativa, post-emergence, 264 h, 8 lb/acre, about 11 days
In short: as §4

Barnyard Grass [35] = test: as above; settings: Echinochloa crus-galli, post-emergence, 264 h, 8 lb/acre, about 11 days
In short: as §4

volunteer soybeans = test: Herbicidal activity at 16 pounds per acre, % control
Description: as §1, §2

SMILES | pest or weed control at 17933.6 g/ha (Johnsongrass [2]) | plant injury at 17933.6 g/ha (Corn [3]) | pest or weed control at 17933.6 g/ha (Curled Dock [4]) | pest or weed control at 17933.6 g/ha (Cucumber [5]) | pest or weed control at 17933.6 g/ha (Lambsquarters [6]) | pest or weed control at 17933.6 g/ha (Chickweed [7]) | pest or weed control at 17933.6 g/ha (Velvetleaf [8]) | pest or weed control at 17933.6 g/ha (Pigweed [9]) | pest or weed control at 17933.6 g/ha (Nutgrass [10]) | pest or weed control at 17933.6 g/ha (Cheatgrass [11]) | pest or weed control at 17933.6 g/ha (Wild Oats [12]) | pest or weed control at 17933.6 g/ha (Crabgrass [13]) | pest or weed control at 17933.6 g/ha (Yellow Rocket [14]) | pest or weed control at 17933.6 g/ha (Snapbeans [15]) | pest or weed control at 17933.6 g/ha (Foxtail [16]) | pest or weed control at 17933.6 g/ha (Alfalfa [17]) | pest or weed control at 17933.6 g/ha (Barnyard Grass [18]) | pest or weed control at 8966.8 g/ha (Johnsongrass [19]) | plant injury at 8966.8 g/ha (Corn [20]) | pest or weed control at 8966.8 g/ha (Curled Dock [21]) | further results
O=c1[nH]c2cccnc2c(=O)n1C1CCCCC1 [3-cyclohexyl-pyrido[3,2-d] pyrimidine-2,4(1H,3H)-dione] | 100% | 90% | 100% | 100% | 100% | 100% | 100% | 100% | 100% | 100% | 100% | 100% | 100% | 100% | 100% | 100% | 100% | 100% | 40% | 100% | effective application rate [1]: substantially the same application rates, e.g., as similar or salt solutions in water, are effective; pest or weed control at 8966.8 g/ha (Cucumber [22]): 100%; pest or weed control at 8966.8 g/ha (Lambsquarters [23]): 100%; pest or weed control at 8966.8 g/ha (Chickweed [24]): 100%; pest or weed control at 8966.8 g/ha (Velvetleaf [25]): 100%; pest or weed control at 8966.8 g/ha (Pigweed [26]): 100%; pest or weed control at 8966.8 g/ha (Nutgrass [27]): 100%; pest or weed control at 8966.8 g/ha (Cheatgrass [28]): 80%; pest or weed control at 8966.8 g/ha (Wild Oats [29]): 100%; pest or weed control at 8966.8 g/ha (Crabgrass [30]): 100%; pest or weed control at 8966.8 g/ha (Yellow Rocket [31]): 100%; pest or weed control at 8966.8 g/ha (Snapbeans [32]): 80%; pest or weed control at 8966.8 g/ha (Foxtail [33]): 100%; pest or weed control at 8966.8 g/ha (Alfalfa [34]): 30%; pest or weed control at 8966.8 g/ha (Barnyard Grass [35]): 100%
CCn1c(=O)[nH]c2ncccc2c1=O [3-ethyl-pyrido[2,3-d]pyrimidine-2,4 (1H,3H)-dione] |  |  |  |  |  | 80% | 80% |  | 90% |  |  |  | 80% | 100% |  |  |  |  |  |  | order of herbicidal activity [1]: comparatively low order; percent control (volunteer soybeans): 100%; herbicidal activity/control (Johnsongrass [2]; 16 pounds per acre): no significant control; herbicidal activity/control (Corn [3]; 16 pounds per acre): no significant control; herbicidal activity/control (Curled Dock [4]; 16 pounds per acre): no significant control; herbicidal activity/control (Cucumber [5]; 16 pounds per acre): no significant control; herbicidal activity/control (Lambsquarters [6]; 16 pounds per acre): no significant control; herbicidal activity/control (Pigweed [9]; 16 pounds per acre): no significant control; herbicidal activity/control (Cheatgrass [11]; 16 pounds per acre): no significant control; herbicidal activity/control (Wild Oats [12]; 16 pounds per acre): no significant control; herbicidal activity/control (Crabgrass [13]; 16 pounds per acre): no significant control; herbicidal activity/control (Foxtail [16]; 16 pounds per acre): no significant control; herbicidal activity/control (Alfalfa [17]; 16 pounds per acre): no significant control; herbicidal activity/control (Barnyard Grass [18]; barnyardgrass, 16 pounds per acre): no significant control
CC(C)n1c(=O)[nH]c2cccnc2c1=O [3-isopropyl-pyrido[3,2-d]pyrimidine-2,4(1H,3H)-dione] | 100% | 100% | 100% | 100% | 90% | 100% | 100% | 100% | 20% | 100% | 100% | 100% | 100% | 100% | 100% | 100% | 100% | 90% | 30% | 100% | order of herbicidal activity [1]: high order of activity; pest or weed control at 8966.8 g/ha (Cucumber [22]): 100%; pest or weed control at 8966.8 g/ha (Lambsquarters [23]): 100%; pest or weed control at 8966.8 g/ha (Chickweed [24]): 70%; pest or weed control at 8966.8 g/ha (Velvetleaf [25]): 100%; pest or weed control at 8966.8 g/ha (Pigweed [26]): 100%; pest or weed control at 8966.8 g/ha (Nutgrass [27]): 50%; pest or weed control at 8966.8 g/ha (Cheatgrass [28]): 50%; pest or weed control at 8966.8 g/ha (Wild Oats [29]): 70%; pest or weed control at 8966.8 g/ha (Crabgrass [30]): 100%; pest or weed control at 8966.8 g/ha (Yellow Rocket [31]): 100%; pest or weed control at 8966.8 g/ha (Snapbeans [32]): 90%; pest or weed control at 8966.8 g/ha (Foxtail [33]): 100%; pest or weed control at 8966.8 g/ha (Alfalfa [34]): 90%; pest or weed control at 8966.8 g/ha (Barnyard Grass [35]): 80%
CCC(C)n1c(=O)[nH]c2cccnc2c1=O (stereo not shown) [3-sec-butyl-pyrido[3,2-d] pyrimidine-2,4(1H,3H)-dione] | 100% | 100% | 100% | 100% | 100% | 100% | 100% | 100% | 100% | 100% | 100% | 100% | 100% | 100% | 100% | 100% | 100% | 100% | 90% | 100% | effective application rate [1]: substantially the same application rates, e.g., as similar or salt solutions in water, are effective; pest or weed control at 8966.8 g/ha (Cucumber [22]): 100%; pest or weed control at 8966.8 g/ha (Lambsquarters [23]): 100%; pest or weed control at 8966.8 g/ha (Chickweed [24]): 100%; pest or weed control at 8966.8 g/ha (Velvetleaf [25]): 100%; pest or weed control at 8966.8 g/ha (Pigweed [26]): 100%; pest or weed control at 8966.8 g/ha (Nutgrass [27]): 100%; pest or weed control at 8966.8 g/ha (Cheatgrass [28]): 100%; pest or weed control at 8966.8 g/ha (Wild Oats [29]): 100%; pest or weed control at 8966.8 g/ha (Crabgrass [30]): 100%; pest or weed control at 8966.8 g/ha (Yellow Rocket [31]): 100%; pest or weed control at 8966.8 g/ha (Snapbeans [32]): 100%; pest or weed control at 8966.8 g/ha (Foxtail [33]): 100%; pest or weed control at 8966.8 g/ha (Alfalfa [34]): 100%; pest or weed control at 8966.8 g/ha (Barnyard Grass [35]): 100%
